The text below walks through data of EP1118615A1, “NOVEL SALTS OF PYRIDOPYRAZINE COMPOUND AND CRYSTALS THEREOF” (FUJISAWA PHARMACEUTICAL CO., LTD., priority 1998, dated 2000).

The conditions of series [1]: methanesulfonate.
A short description of series [2]: Changes in crystallinity upon compounding with ethanol. The format is physicochemical. From the text: (2) Changes in crystallinity upon compounding
For compound (I) and hydrochloride (B), changes in crystallinity upon compounding with ethanol were studied.

A short description of another series: Hygroscopicity. Format: physicochemical. From the text:
(§1) In the study on polymorphism of compound (I), six kinds of polymorphs (A01, A09, A16, A20, A30 and A43 crystals) were found. For each of those polymorphs, hygroscopicity, stability in solid state, solubility and changes in crystallinity on compounding with various solvents were studied. However, the A30 crystal was not studied since it contains ethanol.

The nature of a further series: Stability in solid state. Format: physicochemical. On the set-up: Water content: unit not given here.
Source text: The crystallinity of hydrochloride was decreased when it was mixed with ethanol.
as §1
(2) Stability in solid state

A short description of another series: physchem. To be noted: thermodynamic from solid.
[3] abbreviates: Table 1, listed as Compound (I) (A01 crystal).
[4] abbreviates: Table 4, room temperature, 30-min shaking.
Where [5] appears, read: 70°C, 75% RH, 9 days, methanesulfonate.
Setting [6] is: distilled water for injection, water.
Setting [7] is: physiological saline solution, saline or isotonic.

Where a name gives a salt, the structure may show the parent alone. Read-outs that look alike come from different tables or passages of the source. Some results are limits rather than exact numbers.

Consider `CS(=O)(=O)O.O=C(Nc1cccc(-n2c(=O)c(Cc3cccnc3)nc3cccnc32)c1)c1cc(Cl)cc(Cl)c1` [A01 crystal, 4-(3-(3,5-dichlorobenzoylamino)phenyl)-2-(3-pyridyl)methyl-3-oxo-3,4-dihydropyr ido[2,3-b]pyrazine methanesulfonate], for which the “Solubility, Distilled water for injection” value in series [1] (setting [3]) is listed as “improved”. Also, the “Solubility, Physiological saline solution” value in series [1] (setting [3]) is given as “improved”. Also, the “Solubility, Distilled injection for injection” value in series [1] (setting [4]) stood at 0.637 mg/mL. Further, the “Influence of compounding with ethanol on crystallinity” value (“Influence of compounding with ethanol” for short) in series [2] (listed as Compound (I) (A01 crystal), methanesulfonate) was “No change (changed into in A16 crystal)”. In addition, in “Hygroscopicity” (listed as A01, methanesulfonate), the Hygroscopicity entry is on record as “less hygroscopic”. Moreover, the Crystal form entry in “Stability in solid state” (70°C, 75% RH, 9 days) is on record as “Unchanged”; in the series “Stability in solid state” (70°C, 9 days) it was “Unchanged”. For the same compound, the “% Residue” value turned out to be 99.9% in the series “Stability in solid state” (setting [5]) and 100.0% in the series “Stability in solid state” (Initial). Further, the Appearance result is reported as “Yellowish white crystalline powder powder” in the series “Stability in solid state” (setting [5]); “Yellowish white crystalline powder” in “Stability in solid state” (70°C, 9 days, methanesulfonate); “Yellowish white crystalline powder” in “Stability in solid state” (Initial, methanesulfonate). For the same compound, the Water content in “Stability in solid state” (setting [5]) worked out at 4.76; in the series “Stability in solid state” (70°C, 9 days, methanesulfonate), 4.23; in the series “Stability in solid state” (Initial, methanesulfonate), 4.42. The figures for the solubility in the series “physchem” (setting [6]) and in “physchem” (setting [7]) were 637 µg/mL and 43.9 µg/mL, respectively. The solubility at 30 min in the series “physchem” (setting [7]) was found to be 43.9 µg/mL.

Turning to `CS(=O)(=O)O.O=C(Nc1cccc(-n2c(=O)c(Cc3cccnc3)nc3cccnc32)c1)c1cc(Cl)cc(Cl)c1` [A20 crystal, 4-(3-(3,5-dichlorobenzoylamino)phenyl)-2-(3-pyridyl)methyl-3-oxo-3,4-dihydropyr ido[2,3-b]pyrazine methanesulfonate], the “Solubility, Distilled injection for injection” value in series [1] (setting [4]) stood at 0.00876 mg/mL. Further, in series [1] (setting [4]), the “Solubility, Physiological saline solution” value was 0.0645 mg/ml. In addition, in the series “Hygroscopicity” (listed as A20, methanesulfonate), the Hygroscopicity entry is listed as “less hygroscopic”. For the same compound, the Crystal form result is recorded as “Unchanged” in “Stability in solid state” (70°C, 75% RH, 9 days) and “Unchanged” in “Stability in solid state” (70°C, 9 days). Further, the “% Residue” value in “Stability in solid state” (setting [5]) turned out to be 101.0%; in “Stability in solid state” (70°C, 9 days, methanesulfonate) it was 99.6%; in “Stability in solid state” (Initial), 100.0%. Besides, the Appearance entry is on record as “Pale yellowish white crystalline powder” in the series “Stability in solid state” (setting [5]); “Pale yellowish white crystalline powder” in the series “Stability in solid state” (70°C, 9 days, methanesulfonate); “Pale yellowish white white crystalline powder” in “Stability in solid state” (Initial, methanesulfonate). Moreover, the Water content was 1.22 in “Stability in solid state” (setting [5]); 0.30 in the series “Stability in solid state” (70°C, 9 days, methanesulfonate); 0.41 in “Stability in solid state” (Initial, methanesulfonate). The “change in crystal form” value in “Stability in solid state” (heat and humidity, summary of Table 3) is “no change”. Further, the “chemical stability against heat and humidity” value in the series “Stability in solid state” (summary of Table 3) is “chemically stable”.

For the compound `CS(=O)(=O)O.O=C(Nc1cccc(-n2c(=O)c(Cc3cccnc3)nc3cccnc32)c1)c1cc(Cl)cc(Cl)c1` [Example A09, 4-(3-(3,5-dichlorobenzoylamino)phenyl)-2-(3-pyridyl)methyl-3-oxo-3,4-dihydropyrido[2,3-b]pyrazine methanesulfonate], the Hygroscopicity result in “Hygroscopicity” (methanesulfonate) is recorded as “highly hygroscopic”.

As for `CS(=O)(=O)O.O=C(Nc1cccc(-n2c(=O)c(Cc3cccnc3)nc3cccnc32)c1)c1cc(Cl)cc(Cl)c1` [compound (I), 4-[3-(3,5-dichlorobenzoylamino)phenyl]-2-(3-pyridylmethyl)-3-oxo-3,4-dihydropyr ido[2,3-b]pyrazine methanesulfonate], in series [2] (methanesulfonate), the “Influence of compounding with ethanol” value is listed as “no change in crystallinity”.

Take `O=C(Nc1cccc(-n2c(=O)c(Cc3cccnc3)nc3cccnc32)c1)c1cc(Cl)cc(Cl)c1` [free base (A), 4-[3-(3,5-dichlorobenzoylamino)phenyl]-2-(3-pyridylmethyl)-3-oxo-3,4-dihydropyr ido[2,3-b]pyrazine, reference compound]: the solubility in the series “physchem” (setting [6]) and in the series “physchem” (setting [7]) was ≤ 1 µg/mL in each case.

`O=C(Nc1cccc(-n2c(=O)c(Cc3cccnc3)nc3cccnc32)c1)c1cc(Cl)cc(Cl)c1` [hydrochloride (B), reference compound]: the “Influence of compounding with ethanol” value is “Crystallinity decreased” in series [2] (listed as Hydrochloride (B)) and “decreased” in series [2] (listed as hydrochloride). In “Stability in solid state” (ethanol-compounded solid, 70°C for 9 days), this compound yielded a residual amount of 91%.

Consider `O=C(Nc1cccc(-n2c(=O)c(Cc3cccnc3)nc3cccnc32)c1)c1cc(Cl)cc(Cl)c1.O=S(=O)(O)O` [sulfate, 4-(3-(3,5-dichlorobenzoylamino)phenyl)-2-(3-pyridyl)methyl-3-oxo-3,4-dihydropyrido[2,3-b]pyrazine sulfate, reference compound], for which the figures for the solubility in “physchem” (setting [6]) and in “physchem” (setting [7]) were 29.5 µg/mL and 38.9 µg/mL, respectively.
